From PubChem BioAssay AID435019 (Southern Research Specialized Biocontainment Screening …, 2010) come the findings set out here.

In the test the test system is mammalian cell viability, cytotoxicity counter-screen. Kind of test: mammalian cell cytotoxicity, dose response, cytotoxicity control for M. tuberculosis inhibitor project (AID 435019).

As usually defined, the CC50 is the concentration at which the toxic effect on the cells reaches its halfway point.

Turning to `CN(C)c1ccnc2c[cH-]cc12.[Fe].c1ccc(-[c-]2[c-](-c3ccccc3)[c-](-c3ccccc3)[c-](-c3ccccc3)[c-]2-c2ccccc2)cc1` (configuration not stated), the CC50 is 11.8 µM. As to `C[CH2][Hg][S]c1ccccc1C(=O)O`, the CC50 is 3.56 µM.
